Biological target: T1, SmGAR (Schistosoma mansoni, UniProt A0A3Q0KNW8)
T1 sequence (A0A3Q0KNW8 5-938): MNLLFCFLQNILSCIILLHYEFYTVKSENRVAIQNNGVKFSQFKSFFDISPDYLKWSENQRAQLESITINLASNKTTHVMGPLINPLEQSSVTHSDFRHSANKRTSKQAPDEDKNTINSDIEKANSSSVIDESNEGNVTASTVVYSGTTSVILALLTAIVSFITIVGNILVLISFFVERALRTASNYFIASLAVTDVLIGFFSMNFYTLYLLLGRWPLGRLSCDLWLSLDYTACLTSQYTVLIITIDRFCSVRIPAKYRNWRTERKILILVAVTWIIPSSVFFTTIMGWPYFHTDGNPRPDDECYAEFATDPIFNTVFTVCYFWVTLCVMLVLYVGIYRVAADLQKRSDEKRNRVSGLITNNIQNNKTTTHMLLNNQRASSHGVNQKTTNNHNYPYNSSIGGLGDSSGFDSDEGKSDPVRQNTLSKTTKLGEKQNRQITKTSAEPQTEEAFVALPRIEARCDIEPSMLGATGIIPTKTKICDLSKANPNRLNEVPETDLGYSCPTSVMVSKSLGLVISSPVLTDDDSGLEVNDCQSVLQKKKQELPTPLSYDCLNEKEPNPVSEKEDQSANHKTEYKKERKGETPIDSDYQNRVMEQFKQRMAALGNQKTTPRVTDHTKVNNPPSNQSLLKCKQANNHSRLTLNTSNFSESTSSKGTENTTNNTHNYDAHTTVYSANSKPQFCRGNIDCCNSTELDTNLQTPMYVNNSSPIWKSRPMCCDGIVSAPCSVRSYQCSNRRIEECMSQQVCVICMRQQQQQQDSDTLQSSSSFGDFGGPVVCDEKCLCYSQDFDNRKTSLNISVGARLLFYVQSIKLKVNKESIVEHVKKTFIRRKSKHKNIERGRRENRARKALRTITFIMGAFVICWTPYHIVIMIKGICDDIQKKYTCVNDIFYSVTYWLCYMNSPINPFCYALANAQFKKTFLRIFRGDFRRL
Test: yeast HIS3 reporter growth assay, Alamar Blue
Type: cell-based
Settings: read-out: % inhibition at 1 mM

## CN1CCN(CC(=O)N2c3ccccc3C(=O)Nc3cccnc32)CC1 [pirenzepine]
  inhibition at 1000 µM: < 50%
